Assays:
[1] = system: bamyardgrass; assay: Test B flood test barnyardgrass; assay type: in vivo, Echinochloa crus-galli
Summary of the method: (§1)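 Each value is a visual injury score relative to controls, with 10 meaning complete control and 0 no effect. Evaluation took place twelve to sixteen days after the 2-leaf-stage plants were treated and kept in the greenhouse.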

[2] = system: velvetleaf; assay: Test B pre/postemergence velvetleaf; assay type: in vivo, Abutilon theophrasti
Summary of the method: (§2)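 Test chemicals in a non-phytotoxic solvent mixture with surfactant were sprayed preemergence onto planted seeds and postemergence onto plants 2 to 18 cm tall (1- to 4-leaf stage). After twelve to sixteen days in a greenhouse, injury was visually rated against untreated controls from 0 (no effect) to 10 (complete control).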

[3] = system: cocklebur; assay: Test B pre/postemergence cocklebur; assay type: in vivo, Xanthium strumarium
Summary of the method: as §2

[4] = system: blackgrass; assay: Test B pre/postemergence blackgrass; assay type: in vivo, Alopecurus myosuroides
Summary of the method: as §2

[5] = system: surinam grass; assay: Test B pre/postemergence surinam grass; assay type: in vivo, Brachiaria decumbens
Summary of the method: as §2

[6] = system: crabgrass; assay: Test B pre/postemergence crabgrass; assay type: in vivo, Digitaria sanguinalis
Summary of the method: as §2

[7] = system: smallflower flatsedge; assay: Test B flood test smallflower flatsedge; assay type: in vivo, Cyperus difformis
Summary of the method: as §1

[8] = system: giant foxtail; assay: Test B pre/postemergence giant foxtail; assay type: in vivo, Setaria faberii
Summary of the method: as §2

[9] = system: rice; assay: Test B flood test rice; assay type: in vivo, Oryza sativa
Summary of the method: as §1

[10] = system: wild oat; assay: Test B pre/postemergence wild oat; assay type: in vivo, Avena fatua
Summary of the method: as §2

[11] = system: pigweed; assay: Test B pre/postemergence pigweed; assay type: in vivo, Amaranthus retroflexus
Summary of the method: as §2

[12] = system: soybean; assay: Test B pre/postemergence soybean; assay type: in vivo, Glycine max
Summary of the method: as §2

[13] = system: wheat; assay: Test B pre/postemergence wheat; assay type: in vivo, Triticum aestivum
Summary of the method: as §2

[14] = system: bedstraw; assay: Test B pre/postemergence bedstraw; assay type: in vivo, Galium aparine
Summary of the method: as §2

[15] = system: corn; assay: Test B pre/postemergence corn; assay type: in vivo, Zea mays
Summary of the method: as §2

[16] = system: morningglory; assay: Test B pre/postemergence morningglory; assay type: in vivo, Ipomoea hederacea
Summary of the method: as §2

[17] = Rate 62 g/ha, headed Pre-emergence (flood test species), scale 0 to 10 (0 no effect, 10 complete control)
[18] = Rate 125 g/ha, Pre-emergence, flood test species, scale 0 to 10 where 0 is no effect and 10 is complete control
[19] = Rate 250 g/ha, Pre-emergence, flood-test species, scale 0 to 10, 0 is no effect, 10 is complete control
[20] = Rate 500 g/ha, headed Pre-emergence (flood test species), scale 0 to 10 (0 no effect, 10 complete control)
[21] = Preemergence, Rate 62 g/ha, scale of 0 to 10 where 0 is no effect and 10 is complete control
[22] = Preemergence, Rate 250 g/ha, scale 0 to 10, 0 is no effect, 10 is complete control
[23] = Preemergence, Rate 500 g/ha, scale 0 (no effect) to 10 (complete control)
[24] = Preemergence, Rate 500 g/ha, scale of 0 to 10 where 0 is no effect and 10 is complete control
[25] = Rate 62 g/ha, Postemergence, scale of 0 to 10 where 0 is no effect and 10 is complete control
[26] = Rate 125 g/ha, Postemergence, scale 0 to 10
[27] = Preemergence, Rate 125 g/ha, 0 is no effect, 10 is complete control
[28] = Rate 500 g/ha, Postemergence, scale 0 to 10

CCc1cccc(C)c1-n1c(=O)on(C(=O)N(c2ccc(F)cc2)C(C)C)c1=O [Compound 201]
3: Wild oats plant response rating [10, 22] | Redroot pigweed plant response rating [11, 28] | Soybean plant response rating [12, 28] | Morningglory plant response rating [16, 28]
5: Crabgrass plant response rating (0 to 10 scale) [6, 27] | Plant response rating, Wild oats [10, 24]
6: Giant foxtail plant response rating (0 to 10 scale) [8, 27]
10: Giant foxtail plant response rating [8, 23] | Plant response rating, Giant foxtail [8, 24]
8: Giant foxtail plant response rating [8, 22]
7: S. Flatsedge plant response rating ([7]; Rate 500 g/ha, Pre-emergence, flood test species, scale 0 to 10 (0 no effect, 10 complete control))
4: Blackgrass plant response rating [4, 22] | Blackgrass plant response rating [4, 23] | Plant response rating, Blackgrass [4, 24] | Blackgrass plant response rating [4, 28] | Plant response rating, B. signalgrass [5, 24] | Crabgrass plant response rating [6, 23]
9: Plant response rating, Barnyardgrass [1, 20] | Crabgrass plant response rating [6, 22] | Plant response rating, Crabgrass [6, 24]
1: Plant response rating (0 to 10; 0 is no effect, 10 is complete control), Velvetleaf ([2]; Rate 250 g/ha, Postemergence) | Soybean plant response rating [12, 25] | Soybean plant response rating [12, 26] | Morningglory plant response rating [16, 25] | Morningglory plant response rating [16, 26] | Plant response rating (0 to 10; 0 is no effect, 10 is complete control), Morningglory ([16]; Rate 250 g/ha, Postemergence)
0: Barnyardgrass plant response rating [1, 17] | Barnyardgrass plant response rating [1, 18] | Barnyardgrass plant response rating [1, 19] | Velvetleaf plant response rating [2, 21] | Velvetleaf plant response rating [2, 22] | Velvetleaf plant response rating [2, 23] | Plant response rating, Velvetleaf [2, 24] | Velvetleaf plant response rating [2, 25] | Velvetleaf plant response rating [2, 26] | Cocklebur plant response rating [3, 21] | Cocklebur plant response rating (0 to 10 scale) [3, 27] | Cocklebur plant response rating [3, 22] | Cocklebur plant response rating [3, 23] | Plant response rating, Cocklebur [3, 24] | Cocklebur plant response rating [3, 25] | Cocklebur plant response rating [3, 26] | Plant response rating (0 to 10; 0 is no effect, 10 is complete control), Cocklebur ([3]; Rate 250 g/ha, Postemergence) | Cocklebur plant response rating [3, 28] | Blackgrass plant response rating [4, 21] | Blackgrass plant response rating (0 to 10 scale) [4, 27] | Blackgrass plant response rating [4, 25] | Blackgrass plant response rating [4, 26] | Plant response rating (0 to 10; 0 is no effect, 10 is complete control), Blackgrass ([4]; Rate 250 g/ha, Postemergence) | B. signalgrass plant response rating [5, 21] | B. signalgrass plant response rating (0 to 10 scale) [5, 27] | B. signalgrass plant response rating [5, 22] | B. signalgrass plant response rating [5, 23] | B. signalgrass plant response rating [5, 25] | B. signalgrass plant response rating ([5]; Rate 125 g/ha, Postemergence, scale 0 (no effect) to 10 (complete control)) | Plant response rating, B. signalgrass ([5]; Rate 250 g/ha, Postemergence, scale 0 to 10, 0 is no effect, 10 is complete control) | B. signalgrass plant response rating ([5]; Rate 500 g/ha, Postemergence, scale 0 to 10, 0 no effect, 10 complete control) | Crabgrass plant response rating [6, 21] | Crabgrass plant response rating [6, 25] | Crabgrass plant response rating [6, 26] | Plant response rating (0 to 10; 0 is no effect, 10 is complete control), Crabgrass ([6]; Rate 250 g/ha, Postemergence) | Crabgrass plant response rating [6, 28] | S. Flatsedge plant response rating [7, 17] | S. Flatsedge plant response rating [7, 18] | S. Flatsedge plant response rating [7, 19] | Giant foxtail plant response rating [8, 25] | Giant foxtail plant response rating [8, 26] | Plant response rating (0 to 10; 0 is no effect, 10 is complete control), Giant foxtail ([8]; Rate 250 g/ha, Postemergence) | Giant foxtail plant response rating [8, 28] | Rice plant response rating [9, 17] | Rice plant response rating [9, 18] | Rice plant response rating [9, 19] | Plant response rating, Rice [9, 20] | Wild oats plant response rating [10, 21] | Wild oats plant response rating [10, 23] | Wild oats plant response rating [10, 25] | Wild oats plant response rating [10, 26] | Plant response rating (0 to 10; 0 is no effect, 10 is complete control), Wild oats ([10]; Rate 250 g/ha, Postemergence) | Redroot pigweed plant response rating [11, 21] | Redroot pigweed plant response rating (0 to 10 scale) [11, 27] | Redroot pigweed plant response rating [11, 22] | Redroot pigweed plant response rating [11, 23] | Plant response rating, Redroot pigweed [11, 24] | Redroot pigweed plant response rating [11, 25] | Redroot pigweed plant response rating [11, 26] | Plant response rating (0 to 10; 0 is no effect, 10 is complete control), Redroot pigweed ([11]; Rate 250 g/ha, Postemergence) | Soybean plant response rating [12, 21] | Soybean plant response rating (0 to 10 scale) [12, 27] | Soybean plant response rating [12, 22] | Soybean plant response rating [12, 23] | Plant response rating, Soybean [12, 24] | Wheat plant response rating [13, 21] | Wheat plant response rating [13, 22] | Wheat plant response rating [13, 23] | Wheat plant response rating [13, 25] | Wheat plant response rating [13, 26] | Plant response rating (0 to 10; 0 is no effect, 10 is complete control), Wheat ([13]; Rate 250 g/ha, Postemergence) | Bedstraw plant response rating [14, 21] | Bedstraw plant response rating (0 to 10 scale) [14, 27] | Bedstraw plant response rating [14, 22] | Bedstraw plant response rating [14, 23] | Plant response rating, Bedstraw [14, 24] | Bedstraw plant response rating [14, 25] | Bedstraw plant response rating [14, 26] | Plant response rating (0 to 10; 0 is no effect, 10 is complete control), Bedstraw ([14]; Rate 250 g/ha, Postemergence) | Bedstraw plant response rating [14, 28] | Corn plant response rating [15, 21] | Corn plant response rating (0 to 10 scale) [15, 27] | Corn plant response rating [15, 22] | Corn plant response rating [15, 23] | Plant response rating, Corn [15, 24] | Corn plant response rating [15, 25] | Corn plant response rating [15, 26] | Plant response rating (0 to 10; 0 is no effect, 10 is complete control), Corn ([15]; Rate 250 g/ha, Postemergence) | Corn plant response rating [15, 28] | Morningglory plant response rating [16, 21] | Morningglory plant response rating (0 to 10 scale) [16, 27] | Morningglory plant response rating [16, 22] | Morningglory plant response rating [16, 23] | Plant response rating, Morningglory [16, 24]
2: Giant foxtail plant response rating [8, 21] | Plant response rating (0 to 10; 0 is no effect, 10 is complete control), Soybean ([12]; Rate 250 g/ha, Postemergence) | Plant response rating, Wheat [13, 24]

Reference: patent US6737383B1, “Herbicidal oxadiazolidines” (priority 1999, dated 2004)
